Like-named read-outs stand apart in the source and are kept apart here.
Key:
[1] = molecular target: T1, SARS-CoV-2 nsp3-mac1 (Severe acute respiratory syndrome coronavirus 2, UniProt P0DTD1); assay: biochemical; parameters: SARS-CoV-2 nsp3 macrodomain TR-FRET single point, per cent inhibition, n=2
[2] = molecular target: T1, SARS-CoV-2 nsp3-mac1; assay: biochemical; type: biochemical; settings: SARS-CoV-2 nsp3 macrodomain TR-FRET single point
[3] = read-out: perc_inhibition_mean, batch_name=ASAP-0000351-001
[4] = read-out: perc_inhibition_mean, batch_name=ASAP-0000401-001
[5] = read-out: perc_inhibition_mean, batch_name=ASAP-0000477-001
[6] = read-out: perc_inhibition_mean, batch_name=ASAP-0000424-001
[7] = read-out: perc_inhibition_mean, batch_name=ASAP-0000315-001
[8] = read-out: perc_inhibition_mean, batch_name=ASAP-0000391-001
[9] = read-out: perc_inhibition_mean, batch_name=ASAP-0000411-001
[10] = read-out: perc_inhibition_mean, batch_name=ASAP-0000332-001
[11] = read-out: perc_inhibition_mean, batch_name=ASAP-0000461-001
[12] = read-out: perc_inhibition_mean, batch_name=ASAP-0000451-001
[13] = read-out: perc_inhibition_mean, batch_name=ASAP-0000421-001

With `NC(=O)[C@@H]1CCN(C(=O)c2cnc3[nH]c(=O)[nH]c(=O)c3c2)C1` [ASAP-0000062] as the molecule, how does the inhibition at 50 µM ([1]; read-out: perc_inhibition_mean, batch_name=ASAP-0000062-001) read?
The inhibition at 50 µM was -6.32%.

And the perc_inhibition_mean ([2]; concentration 50.0 uM)?
Its perc_inhibition_mean is -6.322%.

Which results are given for `Cc1cnc(C(=O)N(CCC(=O)N2CCNCC2)Cc2cccc(Cl)c2)nc1` [ASAP-0000351]?
inhibition at 49.75 µM [1, 3]: -1.49%; inhibition at 99.5 µM [1, 3]: 6.47%; perc_inhibition_mean ([2]; concentration 49.75 uM, n=2): -1.487%; perc_inhibition_mean ([2]; concentration 99.5 uM, n=2): 6.47%

How did the inhibition at 49.75 µM [1, 4] turn out when `O=C(CCN(Cc1cccc(Cl)c1)C(=O)C1CCC(O)CC1)N1CCNCC1` (stereo not shown) [ASAP-0000401] was run?
The inhibition at 49.75 µM was -4.32%.

And the inhibition at 99.5 µM [1, 4]?
Its inhibition at 99.5 µM is 0.465%.

What about the perc_inhibition_mean ([2]; concentration 49.75 uM) of the same molecule?
Its perc_inhibition_mean is -4.315%.

What about the perc_inhibition_mean ([2]; concentration 99.5 uM) of the same molecule?
The perc_inhibition_mean was 0.465%.

`CN1CCOc2cccc(NC(=O)Nc3cnc4[nH]ncc4c3)c21` [ASAP-0000035] was tested. Which inhibition at 50 µM ([1]; read-out: perc_inhibition_mean, batch_name=ASAP-0000035-001) did it give?
The inhibition at 50 µM was -6.54%.

And the perc_inhibition_mean ([2]; concentration 50.0 uM)?
Its perc_inhibition_mean is -6.537%.

For `CC(C)[C@H]1N(c2ncnc3[nH]ccc23)CC12CCOCC2` [ASAP-0000477], which inhibition at 49.75 µM [1, 5] is on record?
Its inhibition at 49.75 µM is 27.6%.

What about the inhibition at 99.5 µM [1, 5] of the same molecule?
Its inhibition at 99.5 µM is 48%.

What about the perc_inhibition_mean ([2]; concentration 49.75 uM) of the same molecule?
Its perc_inhibition_mean is 27.65%.

What about the perc_inhibition_mean ([2]; concentration 99.5 uM) of the same molecule?
The perc_inhibition_mean was 47.993%.

Which results are given for `CN(C(=O)c1cnn2ccc(C3CCN(C(=O)c4ccccc4)CC3)cc12)c1ccccc1O` [ASAP-0000424]?
inhibition at 49.75 µM [1, 6]: 10%; inhibition at 99.5 µM [1, 6]: 15.9%; perc_inhibition_mean ([2]; concentration 49.75 uM): 10.02%; perc_inhibition_mean ([2]; concentration 99.5 uM): 15.878%

Which inhibition at 49.75 µM [1, 7] does the source give for `CC(C)c1c[nH]nc1NC(=O)c1ccc(NC(=O)Nc2ccccc2)cc1` [ASAP-0000315] here?
The inhibition at 49.75 µM was 6.99%.

What about the inhibition at 99.5 µM [1, 7] of the same molecule?
Its inhibition at 99.5 µM is 8.5%.

And the perc_inhibition_mean ([2]; concentration 49.75 uM, n=2)?
Its perc_inhibition_mean is 6.988%.

What about the perc_inhibition_mean ([2]; concentration 99.5 uM, n=2) of the same molecule?
Its perc_inhibition_mean is 8.502%.

`Cc1cc(NCc2csc(C)n2)ncn1` [ASAP-0000106] was tested. Which inhibition at 50 µM ([1]; read-out: perc_inhibition_mean, batch_name=ASAP-0000106-001) did it give?
Its inhibition at 50 µM is -4.64%.

And the perc_inhibition_mean ([2]; concentration 50.0 uM)?
Its perc_inhibition_mean is -4.644%.

With `CN(c1ncnc2[nH]ccc12)[C@H]1CCN(S(C)(=O)=O)C1` [ASAP-0000112] as the molecule, how does the inhibition at 50 µM ([1]; read-out: perc_inhibition_mean, batch_name=ASAP-0000112-001) read?
Its inhibition at 50 µM is -0.371%.

What about the perc_inhibition_mean ([2]; concentration 50.0 uM) of the same molecule?
The perc_inhibition_mean was -0.371%.

What does the source list for `CN1CCO[C@@H](CNC(=O)c2cnn3ccc(C4CCN(C(=O)c5ccccc5)CC4)cc23)C1` [ASAP-0000391]?
inhibition at 49.75 µM [1, 8]: -12%; inhibition at 99.5 µM [1, 8]: -11.5%; perc_inhibition_mean ([2]; concentration 49.75 uM): -12.021%; perc_inhibition_mean ([2]; concentration 99.5 uM): -11.503%

For `O=C(c1ccccc1)N1CCC(c2ccn3ncc(C(=O)N4CCc5cccnc54)c3c2)CC1` [ASAP-0000411], which inhibition at 49.75 µM [1, 9] is on record?
Its inhibition at 49.75 µM is -4.67%.

And the inhibition at 99.5 µM [1, 9]?
Its inhibition at 99.5 µM is -8.02%.

And the perc_inhibition_mean ([2]; concentration 49.75 uM)?
Its perc_inhibition_mean is -4.67%.

And the perc_inhibition_mean ([2]; concentration 99.5 uM)?
Its perc_inhibition_mean is -8.02%.

How did the inhibition at 49.75 µM [1, 10] turn out when `Cc1cocc1C(=O)N(CCC(=O)N1CCNCC1)Cc1cccc(Cl)c1` [ASAP-0000332] was run?
The inhibition at 49.75 µM was 1.4%.

And the inhibition at 99.5 µM [1, 10]?
Its inhibition at 99.5 µM is 0.51%.

And the perc_inhibition_mean ([2]; concentration 49.75 uM, n=2)?
The perc_inhibition_mean was 1.398%.

And the perc_inhibition_mean ([2]; concentration 99.5 uM, n=2)?
The perc_inhibition_mean was 0.51%.

`O=C(N[C@@H](C(=O)O)[C@@H](O)Cc1ccccc1)c1ncnc2[nH]ccc12` [ASAP-0000461] was tested. Which inhibition at 49.75 µM [1, 11] did it give?
The inhibition at 49.75 µM was 3.79%.

What about the inhibition at 99.5 µM [1, 11] of the same molecule?
Its inhibition at 99.5 µM is 12.3%.

What about the perc_inhibition_mean ([2]; concentration 49.75 uM) of the same molecule?
The perc_inhibition_mean was 3.789%.

What about the perc_inhibition_mean ([2]; concentration 99.5 uM) of the same molecule?
Its perc_inhibition_mean is 12.267%.

How did the inhibition at 49.75 µM [1, 12] turn out when `O=C(O)c1ccc(C(=O)N2CCC(c3ccn4ncc(C(=O)N5CCCCC5)c4c3)CC2)o1` [ASAP-0000451] was run?
Its inhibition at 49.75 µM is 40.5%.

And the inhibition at 99.5 µM [1, 12]?
The inhibition at 99.5 µM was 58.1%.

What about the perc_inhibition_mean ([2]; concentration 49.75 uM) of the same molecule?
The perc_inhibition_mean was 40.495%.

And the perc_inhibition_mean ([2]; concentration 99.5 uM)?
The perc_inhibition_mean was 58.121%.

What does the source list for `C[C@@H](CO)Nc1ncnc2[nH]c(C(=O)OC(C)(C)C)cc12` [ASAP-0000076]?
inhibition at 50 µM ([1]; read-out: perc_inhibition_mean, batch_name=ASAP-0000076-001): 10.7%; perc_inhibition_mean ([2]; concentration 50.0 uM): 10.712%

With `COc1cc(OC)cc(C(=O)N(CCC(=O)N2CCNCC2)Cc2cccc(Cl)c2)c1` [ASAP-0000111] as the molecule, how does the inhibition at 50 µM ([1]; read-out: perc_inhibition_mean, batch_name=ASAP-0000111-001) read?
Its inhibition at 50 µM is -4.53%.

And the perc_inhibition_mean ([2]; concentration 50.0 uM)?
The perc_inhibition_mean was -4.529%.

For `CCCNC(=O)[C@H]1CCCN(c2ncnc3[nH]ccc23)C1` [ASAP-0000053], which inhibition at 50 µM ([1]; read-out: perc_inhibition_mean, batch_name=ASAP-0000053-001) is on record?
Its inhibition at 50 µM is -4.36%.

What about the perc_inhibition_mean ([2]; concentration 50.0 uM) of the same molecule?
The perc_inhibition_mean was -4.36%.

Which inhibition at 49.75 µM [1, 13] does the source give for `O=C(c1c[nH]nn1)N1CCC(c2ccn3ncc(C(=O)N4CCCCC4)c3c2)CC1` [ASAP-0000421] here?
Its inhibition at 49.75 µM is 14.7%.

And the inhibition at 99.5 µM [1, 13]?
Its inhibition at 99.5 µM is 25.7%.

And the perc_inhibition_mean ([2]; concentration 49.75 uM)?
Its perc_inhibition_mean is 14.65%.

What about the perc_inhibition_mean ([2]; concentration 99.5 uM) of the same molecule?
Its perc_inhibition_mean is 25.652%.
